Twelve compounds from patent US20260070927A1, “INDAZOLE MACROCYCLES FOR THE TREATMENT OF AUTOIMMUNE DISEASE” (Hoffmann-La Roche Inc., priority 2022, published 2026) can be followed below.

Data set [1] deals with human stimulator of interferon genes (STING) (139-379) (Homo sapiens (Human), UniProt Q86WV6). Briefly: Microliter plate-based TR-FRET competition-binding assay for binders of STING. As to conditions: Alexa488 probe, read-out: FRET_IC50. The procedure: This is the competition-binding assay to test the compounds' potency to the C-terminal Domain (CTD) and ligand-binding domain of human stimulator of interferon genes (STING). STING (139-379, Q86WV6, http://www.uniprot.org/uniprot) recombinant protein (in 20 mM Tris, 150 mM NaCl, pH 8.0, and expression in Escherichia coli (E. coli) BL21 (DE3)) with a C-terminal flag-tag was employed for the assay. When Alexa-488 labeled active site probe (refer to patent WO2017/175156 A1) bounds to STING (139-379), it accepts the 485 nm emission from Tb-M2-Flag-STING and results in an increase in fluorescence at 520 nm. Compounds that compete for the probe-binding site will reduce 520 nm signal. The assay was run in proxiplate-384 plus (PerkinElmer, cat: 60150300) containing of 2.5 nM STING, 2.5 nM M2-Tb (Cisbio, 61FG2TLA, Lot: 17 A) and 250 nM Alexa488 probe. Plates were centrifuged for 1 min at 1000 rpm, incubated for 30 min at room temperature, and then measured the dual fluorescence emission at 520 nm/485 nM following 320 nm laser excitation on an Envision plate reader (Perkin-Elmer). The compounds' effect on the STING binding is detected by measuring ratiometric fluorescence from time-resolved FRET. The percentage of inhibition of at each compound concentration is calculated on the basis of their changes of TR-FRET efficiency relative to the change of TR-FRET caused by positive control 2′3′cGAMP (Sigma, cat: SML1229).
(In general: Time-resolved FRET reads energy transfer from a long-lived donor to a nearby acceptor.)

For a further data set, the system named is STING (IFN-β in hPBMC). Kind of data set: hPBMC cytokine functional assay (IFN-β decrease after Baculovirus stimulation). As to conditions: Homo sapiens, Baculovirus MOI 40, 24 hours, read-out: hPBMC_IC50. The class given is cell-based. On the procedure:
The inhibition of STING by compounds could be measured by the decrease of IFN-β in hPBMC, which is stimulated by a double stranded DNA virus Baculoviurs (Purchased from Genescript, pCMV-Dest Vector virus generation P2 BV stock virus, Sf-900 II medium with 5% FBS, Lot C9835DK230-2/P4DL001). Frozen hPBMC cells (purchased from Stemcell Technologies, cat number is 70025, Lot 191070803C) were thawed at 37° C. water bath, then cells were re-suspended in 50 ml tube using 20 ml Cell culture medium, and then centrifuged for 5 min at 2000 rpm before the supernatant was removed carefully. The cells were re-suspended in culture medium (RPMI-1640 with 1.5 g/L NaHCO3, 4.5 g/L glucose, 10 mM HEPES and 1 mM Na-pyruvate, 10% HI-FBS); 65 μL of the cell suspension was dispensed into 384 well plate (70K cells/well) by Multidrop Combi with at least 3 hours incubation at 37° C., 5% CO2 cell incubator.
Then 4 μL of compound solution per well (final 0.5% DMSO) was transferred by Agilent Bravo followed by infection with 11 μL of Baculovirus at a final MOI of 40. The level of IFN-β secreted in the supernatant of hPBMC was determined after 24 hours of incubation at 37° C. cell incubator by human IFN-β HTRF assay (Cisbio, cat: 62HIFNBPEH) following the manufacture's instruction. CellTiter-Glo kit (Promega, cat: G7573) was applied for the cell viability evaluation using Envision.

A short description of data set [2]: Metabolic (liver microsomal) stability assay. Particulars: human liver microsomes, 1 μM test compound. (Liver microsomes are vesicles of endoplasmic reticulum, rich in cytochrome P450 enzymes.)
Protocol: The liver microsomal stability assay is used for early assessment of metabolic stability of a test compound in liver microsomes.
Liver microsomes were preincubated with test compound for 10 minutes at 37° C. in 100 mM potassium phosphate buffer, pH 7.4. The reactions were initiated by adding NADPH regenerating system. The final incubation mixtures contained 1 μM test compound, 0.5 mg/mL liver microsomal protein, 1 mM MgCl2, 1 mM NADP, 1 unit/mL isocitric dehydrogenase and 6 mM isocitric acid in 100 mM potassium phosphate buffer, pH 7.4. After incubation times of 0, 3, 6, 9, 15 and 30 minutes at 37° C., 300 μL of cold acetonitrile (including internal standard) was added to 100 μL incubation mixture to terminate the reaction. Following precipitation and centrifugation, the amount of compound remaining in the samples were determined by LC-MS/MS. Controls of no NADPH regenerating system at zero and 30 minutes were also prepared and analyzed.

human stimulator of interferon genes (STING) (139-379), sequence (Q86WV6 139-379): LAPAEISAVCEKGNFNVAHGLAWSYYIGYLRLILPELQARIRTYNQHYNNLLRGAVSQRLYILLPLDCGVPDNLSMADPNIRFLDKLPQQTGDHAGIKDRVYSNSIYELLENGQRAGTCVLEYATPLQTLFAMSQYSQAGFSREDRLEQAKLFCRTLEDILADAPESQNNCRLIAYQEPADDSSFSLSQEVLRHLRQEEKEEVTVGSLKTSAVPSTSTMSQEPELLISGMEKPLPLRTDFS

In the case of `Cn1cnc(CN2CCCc3c4c(cccc4nn3C)-c3cccc(c3)O[C@H]3C[C@@H](C2=O)N(c2ncnc4c2cnn4-c2ccc(F)cc2F)C3)n1` [Example 16, (8S,11S)-10-[1-(2,4-difluorophenyl)pyrazolo[3,4-d]pyrimidin-4-yl]-18-methyl-13-[(1-methyl-1,2,4-triazol-3-yl)methyl]-7-oxa-10,13,18,19 tetrazapentacyclo[15.6.1.1^2,6.1^8,11.0^20,24]hexacosa-1(23),2(26),3,5,17(24),19,21-heptaen-12-one], the IC50 in data set [1] is 0.0031 µM; in the data set on STING (IFN-β in hPBMC), 0.384 µM. Also, the “Clearance of human microsome” value in data set [2] was 15.9 mL/min/kg.
Take `Cn1nc2c(F)ccc3c2c1CCCN(CCCN1CCOCC1)C(=O)[C@@H]1C[C@@H](CN1c1ncnc2c1cnn2-c1ccc(F)cc1F)Nc1cccc-3n1` [Example 44, (8S,11S)-10-[1-(2,4-difluorophenyl)pyrazolo[3,4-d]pyrimidin-4-yl]-21-fluoro-18-methyl-13-(3-morpholinopropyl)-7,10,13,18,19,26-hexazapentacyclo[15.6.1.1^2,6.1^8,11.0^20,24]hexacosa-1(23),2(26),3,5,17(24),19,21-heptaen-12-one]: the IC50 in data set [1] came out at 0.0063 µM; in the data set with STING (IFN-β in hPBMC), 0.321 µM. Moreover, the “Clearance of human microsome” value in data set [2] amounted to 15.8 mL/min/kg.
For `COc1cc(F)ccc1-n1ncc2c(N3C[C@@H]4C[C@H]3C(=O)N(CCCN3CCOCC3)CCCc3c5c(ccc(F)c5nn3C)-c3cccc(n3)N4)ncnc21` [Example 45, (8S,11S)-21-fluoro-10-[1-(4-fluoro-2-methoxy-phenyl)pyrazolo[3,4-d]pyrimidin-4-yl]-18-methyl-13-(3-morpholinopropyl)-7,10,13,18,19,26-hexazapentacyclo[15.6.1.1^2,6.1^8,11.0^20,24]hexacosa-1(23),2(26),3,5,17(24),19,21-heptaen-12-one], the results for the IC50 (in data set [1]; in the data set on STING (IFN-β in hPBMC)) were 0.0039 µM and 0.569 µM, respectively. The “Clearance of human microsome” value in data set [2] worked out at 15.9 mL/min/kg.
With `Cn1nc2cccc3c2c1CCCN(CCCN1CC2(COC2)C1)C(=O)[C@@H]1C[C@@H](CN1c1ncnc2c1cnn2-c1ccc(F)cc1F)Oc1cccc-3c1` [Example 31, (8S,11S)-10-[1-(2,4-difluorophenyl)pyrazolo[3,4-d]pyrimidin-4-yl]-18-methyl-13-[3-(2-oxa-6-azaspiro[3.3]heptan-6-yl)propyl]-7-oxa-10,13,18,19-tetrazapentacyclo[15.6.1.1^2,6.1^8,11.0^20,24]hexacosa-1(23),2(26),3,5,17(24),19,21-heptaen-12-one], the IC50 was determined as 0.0072 µM in data set [1] and 0.517 µM with STING (IFN-β in hPBMC). Further, the “Clearance of human microsome” value in data set [2] is on record as 12.4 mL/min/kg.
On to `CN1CCCc2c3c(cccc3nn2C)-c2cncc(n2)N[C@H]2C[C@@H](C1=O)N(c1ncnc3c1cnn3-c1ccc(F)cc1F)C2` [Example 7, (8S,11S)-10-[1-(2,4-difluorophenyl)pyrazolo[3,4-d]pyrimidin-4-yl]-13,18-dimethyl-4,7,10,13,18,19,26-heptazapentacyclo[15.6.1.1^2,6.1^8,11.0^20,24]hexacosa-1(23),2,4,6(26),17(24),19,21-heptaen-12-one], for which the IC50 in data set [1] came out at 0.0004 µM; with STING (IFN-β in hPBMC) it was 0.325 µM. For the same compound, the “Clearance of human microsome” value in data set [2] is reported as 13.3 mL/min/kg.
For the compound `CN1CCN(CCCN2CCCc3c4c(cccc4nn3C)-c3cccc(c3)O[C@H]3C[C@@H](C2=O)N(c2ncnc4c2cnn4-c2ccc(F)cc2F)C3)CC1` [Example 32, (8S,11S)-10-[1-(2,4-difluorophenyl)pyrazolo[3,4-d]pyrimidin-4-yl]-18-methyl-13-[3-(4-methylpiperazin-1-yl)propyl]-7-oxa-10,13,18,19-tetrazapentacyclo[15.6.1.1^2,6.1^8,11.0^20,24]hexacosa-1(23),2(26),3,5,17(24),19,21-heptaen-12-one], the results for the IC50 (in data set [1]; in the data set on STING (IFN-β in hPBMC)) were 0.0032 µM and 1.1 µM, respectively. Besides, in data set [2], the “Clearance of human microsome” value was 11.5 mL/min/kg.
As to `CN(C)CCN1CCCc2c3c(cccc3nn2C)-c2cccc(c2)O[C@H]2C[C@@H](C1=O)N(c1ncnc3c1cnn3-c1ccc(F)cc1F)C2` [Example 24, (8S,11S)-10-[1-(2,4-difluorophenyl)pyrazolo[3,4-d]pyrimidin-4-yl]-13-[2-(dimethylamino)ethyl]-18-methyl-7-oxa-10,13,18,19-tetrazapentacyclo[15.6.1.1^2,6.1^8,11.0^20,24]hexacosa-1(23),2(26),3,5,17(24),19,21-heptaen-12-one], the IC50 in data set [1] amounted to 0.0082 µM; in the data set with STING (IFN-β in hPBMC) it was 0.711 µM. Moreover, the “Clearance of human microsome” value in data set [2] came to 14.9 mL/min/kg.
As for `Cn1nc2cccc3c2c1CCCN(CCCO)C(=O)[C@@H]1C[C@@H](CN1c1ncnc2c1cnn2-c1ccc(F)cc1F)Nc1cccc-3n1` [Example 42, (8S,11S)-10-[1-(2,4-difluorophenyl)pyrazolo[3,4-d]pyrimidin-4-yl]-13-(3-hydroxypropyl)-18-methyl-7,10,13,18,19,26-hexazapentacyclo[15.6.1.1^2,6.1^8,11.0^20,24]hexacosa-1(23),2(26),3,5,17(24),19,21-heptaen-12-one], in data set [1], the IC50 was 0.0053 µM. In addition, the “Clearance of human microsome” value in data set [2] was found to be 13.3 mL/min/kg.
On the same counts, the results for `COc1cc(F)ccc1-n1ncc2c(N3C[C@@H]4C[C@H]3C(=O)N(CCCN3CCOCC3)CCCc3c5c(cccc5nn3C)-c3cc(C)cc(n3)N4)ncnc21` [Example 46, (8S,11S)-10-[1-(4-fluoro-2-methoxy-phenyl)pyrazolo[3,4-d]pyrimidin-4-yl]-4,18-dimethyl-13-(3-morpholinopropyl)-7,10,13,18,19,26-hexazapentacyclo[15.6.1.1^2,6.1^8,11.0^20,24]hexacosa-1(23),2(26),3,5,17(24),19,21-heptaen-12-one] are 0.0076 µM and 14.9 mL/min/kg.
Consider `CN1CCCc2c3c(cccc3nn2C)-c2cccc(n2)N[C@H]2C[C@@H](C1=O)N(c1ncnc3c1cnn3-c1ccc(F)cc1F)C2` [Example 3, (8S,11S)-10-[1-(2,4-difluorophenyl)pyrazolo[3,4-d]pyrimidin-4-yl]-13,18-dimethyl-7,10,13,18,19,26-hexazapentacyclo[15.6.1.1^2,6.1^8,11.0^20,24]hexacosa-1(23),2(26),3,5,17(24),19,21-heptaen-12-one], for which the IC50 in data set [1] was found to be 0.0006 µM; in the data set with STING (IFN-β in hPBMC), 0.288 µM.
For `COCCCN1CCCc2c3c(cccc3nn2C)-c2cccc(c2)O[C@H]2C[C@@H](C1=O)N(c1ncnc3c1cnn3-c1ccc(F)cc1F)C2` [Example 27, (8S,11S)-10-[1-(2,4-difluorophenyl)pyrazolo[3,4-d]pyrimidin-4-yl]-13-(3-methoxypropyl)-18-methyl-7-oxa-10,13,18,19-tetrazapentacyclo[15.6.1.1^2,6.1^8,11.0^20,24]hexacosa-1(23),2(26),3,5,17(24),19,21-heptaen-12-one], in that order: 0.0142 µM and 0.023 µM.
Regarding `Cn1nc2cccc3c2c1CCCN(CCCO)C(=O)[C@@H]1C[C@@H](CN1c1ncnc2c1cnn2-c1ccc(F)cc1F)Oc1cccc-3c1` [Example 26, (8S,11S)-10-[1-(2,4-difluorophenyl)pyrazolo[3,4-d]pyrimidin-4-yl]-13-(3-hydroxypropyl)-18-methyl-7-oxa-10,13,18,19-tetrazapentacyclo[15.6.1.1^2,6.1^8,11.0^20,24]hexacosa-1(23),2(26),3,5,17(24),19,21-heptaen-12-one], the IC50 turned out to be 0.0022 µM in data set [1] and 0.103 µM in the data set on STING (IFN-β in hPBMC).
